# Data as given in patent publication US20030139391A1 (priority 2000, published 2003).
# System: Patients diagnosed with Alzheimer's Disease
# Test: Adverse events and discontinuation in 5-month slow-titration trial
# Assay type: in vivo, human
# Protocol: Subjects in the Placebo group received 21 weeks (5 months) of placebo medication.
# The safety of the drug was also monitored throughout the study. Blood samples for biochemistry and haematology and random urine sample for urinalysis were taken at each visit and at completion for all efficacy testing. Systolic and diastolic blood pressure were measured in the sitting position, pulse and vital signs were recorded at each visit.
smiles,measurement,setting,value
"COc1ccc2c3c1O[C@H]1C[C@@H](O)C=C[C@@]31CCN(C)C2 [GAL, galantamine]",Agitation: % of patients,8 mg/day,(15.0%)
same,Agitation: number of patients,8 mg/day,21
same,Anorexia: % of patients,8 mg/day,(5.7%)
same,Anorexia: number of patients,8 mg/day,8
same,Bradycardia: % of patients,8 mg/day,(3.6%)
same,Bradycardia: number of patients,8 mg/day,5
same,Convulsions: number of patients,8 mg/day,0
same,DC due to adverse event: %,8 mg/day,6%
same,DC due to adverse event: N,8 mg/day,9
same,DC due to inefficacy: %,8 mg/day,1 (1%)
same,DC due to inefficacy: N,8 mg/day,1 (1%)
same,Depression: % of patients,8 mg/day,(2.9%)
same,Depression: number of patients,8 mg/day,4
same,Diarrhea: % of patients,8 mg/day,(5.0%)
same,Diarrhea: number of patients,8 mg/day,7
same,Dizziness: % of patients,8 mg/day,(5.0%)
same,Dizziness: number of patients,8 mg/day,7
same,Dyspepsia: % of patients,8 mg/day,(2.9%)
same,Dyspepsia: number of patients,8 mg/day,4
same,Edema peripheral: % of patients,8 mg/day,(6.4%)
same,Edema peripheral: number of patients,8 mg/day,9
same,Fall: % of patients,8 mg/day,(7.9%)
same,Fall: number of patients,8 mg/day,11
same,Fatigue: % of patients,8 mg/day,(2.1%)
same,Fatigue: number of patients,8 mg/day,3
same,Headache: % of patients,8 mg/day,(3.6%)
same,Headache: number of patients,8 mg/day,5
same,Injury: % of patients,8 mg/day,(3.6%)
same,Injury: number of patients,8 mg/day,5
same,Muscle weakness: % of patients,8 mg/day,(0.7%)
same,Muscle weakness: number of patients,8 mg/day,1
same,Nausea: % of patients,8 mg/day,(5.7%)
same,Nausea: number of patients,8 mg/day,8
same,Rhinitis: % of patients,8 mg/day,(6.4%)
same,Rhinitis: number of patients,8 mg/day,9
same,Serious adverse event Abdominal pain: %,8 mg/day,(0.0%)
same,Serious adverse event Abdominal pain: number,8 mg/day,0
same,Serious adverse event Agitation: %,8 mg/day,(1.4%)
same,Serious adverse event Agitation: number,8 mg/day,2
same,Serious adverse event Asthenia: %,8 mg/day,(0.0%)
same,Serious adverse event Asthenia: number,8 mg/day,0
same,Serious adverse event Basal cell carcinoma: %,8 mg/day,(0.0%)
same,Serious adverse event Basal cell carcinoma: number,8 mg/day,0
same,Serious adverse event Breast neoplasm female: %,8 mg/day,(0.0%)
same,Serious adverse event Breast neoplasm female: number,8 mg/day,0
same,Serious adverse event Cardiac failure: %,8 mg/day,(0.0%)
same,Serious adverse event Cardiac failure: number,8 mg/day,0
same,Serious adverse event Dehydration: %,8 mg/day,(0.0%)
same,Serious adverse event Dehydration: number,8 mg/day,0
same,Serious adverse event Diarrhea: %,8 mg/day,(0.0%)
same,Serious adverse event Diarrhea: number,8 mg/day,0
same,Serious adverse event Dyspnea: %,8 mg/day,(0.0%)
same,Serious adverse event Dyspnea: number,8 mg/day,0
same,Serious adverse event Fall: %,8 mg/day,(2.9%)
same,Serious adverse event Fall: number,8 mg/day,4
same,Serious adverse event Gi haemorrhage: %,8 mg/day,(0.0%)
same,Serious adverse event Gi haemorrhage: number,8 mg/day,0
same,Serious adverse event Injury: %,8 mg/day,(0.7%)
same,Serious adverse event Injury: number,8 mg/day,1
same,Serious adverse event Myocardial infarction: %,8 mg/day,(2.1%)
same,Serious adverse event Myocardial infarction: number,8 mg/day,3
same,Serious adverse event Nausea: %,8 mg/day,(0.0%)
same,Serious adverse event Nausea: number,8 mg/day,0
same,Serious adverse event Pneumonia: %,8 mg/day,(0.7%)
same,Serious adverse event Pneumonia: number,8 mg/day,1
same,Serious adverse event Sepsis: %,8 mg/day,(0.0%)
same,Serious adverse event Sepsis: number,8 mg/day,0
same,Serious adverse event Surgical intervention: %,8 mg/day,(0.0%)
same,Serious adverse event Surgical intervention: number,8 mg/day,0
same,Serious adverse event Syncope: %,8 mg/day,(0.7%)
same,Serious adverse event Syncope: number,8 mg/day,1
same,Serious adverse event Thrombophlebitis deep: %,8 mg/day,(0.0%)
same,Serious adverse event Thrombophlebitis deep: number,8 mg/day,0
same,Serious adverse event Transient ischemic attack: %,8 mg/day,(0.7%)
same,Serious adverse event Transient ischemic attack: number,8 mg/day,1
same,Serious adverse event Urinary tracq infection: %,8 mg/day,(0.7%)
same,Serious adverse event Urinary tracq infection: number,8 mg/day,1
same,Serious adverse event Vomiting: %,8 mg/day,(0.0%)
same,Serious adverse event Vomiting: number,8 mg/day,0
same,Syncope: % of patients,8 mg/day,(1.4%)
same,Syncope: number of patients,8 mg/day,2
same,Total discontinued (DC): %,8 mg/day,23%
same,Total discontinued (DC): N,8 mg/day,32
same,Total patients with any SAE: %,8 mg/day,(10.0%)
same,Total patients with any SAE: number,8 mg/day,14
same,Urinary tract infection: % of patients,8 mg/day,(7.9%)
same,Urinary tract infection: number of patients,8 mg/day,11
same,Vomiting: % of patients,8 mg/day,(3.6%)
same,Vomiting: number of patients,8 mg/day,5
same,Weight decrease: % of patients,8 mg/day,(1.4%)
same,Weight decrease: number of patients,8 mg/day,2
same,Agitation: % of patients,16 mg/day,(10.0%)
same,Agitation: number of patients,16 mg/day,28
same,Anorexia: % of patients,16 mg/day,(6.5%)
same,Anorexia: number of patients,16 mg/day,18
same,Bradycardia: % of patients,16 mg/day,(2.5%)
same,Bradycardia: number of patients,16 mg/day,7
same,Convulsions: number of patients,16 mg/day,0
same,DC due to adverse event: %,16 mg/day,7%
same,DC due to adverse event: N,16 mg/day,19
same,DC due to inefficacy: N,16 mg/day,0
same,Depression: % of patients,16 mg/day,(8.6%)
same,Depression: number of patients,16 mg/day,24
same,Diarrhea: % of patients,16 mg/day,(12.2%)
same,Diarrhea: number of patients,16 mg/day,34
same,Dizziness: % of patients,16 mg/day,(5.4%)
same,Dizziness: number of patients,16 mg/day,15
same,Dyspepsia: % of patients,16 mg/day,(4.7%)
same,Dyspepsia: number of patients,16 mg/day,13
same,Edema peripheral: % of patients,16 mg/day,(2.9%)
same,Edema peripheral: number of patients,16 mg/day,8
same,Fall: % of patients,16 mg/day,(5.05%)
same,Fall: number of patients,16 mg/day,14
same,Fatigue: % of patients,16 mg/day,(3.6%)
same,Fatigue: number of patients,16 mg/day,10
same,Headache: % of patients,16 mg/day,(6.8%)
same,Headache: number of patients,16 mg/day,19
same,Injury: % of patients,16 mg/day,(4.3%)
same,Injury: number of patients,16 mg/day,12
same,Muscle weakness: % of patients,16 mg/day,(1.1%)
same,Muscle weakness: number of patients,16 mg/day,3
same,Nausea: % of patients,16 mg/day,(13.3%)
same,Nausea: number of patients,16 mg/day,37
same,Rhinitis: % of patients,16 mg/day,(3.2%)
same,Rhinitis: number of patients,16 mg/day,9
same,Serious adverse event Abdominal pain: %,16 mg/day,(0.7%)
same,Serious adverse event Abdominal pain: number,16 mg/day,2
same,Serious adverse event Agitation: %,16 mg/day,(0.4%)
same,Serious adverse event Agitation: number,16 mg/day,1
same,Serious adverse event Asthenia: %,16 mg/day,(0.7%)
same,Serious adverse event Asthenia: number,16 mg/day,2
same,Serious adverse event Basal cell carcinoma: %,16 mg/day,(0.0%)
same,Serious adverse event Basal cell carcinoma: number,16 mg/day,0
same,Serious adverse event Breast neoplasm female: %,16 mg/day,(0.0%)
same,Serious adverse event Breast neoplasm female: number,16 mg/day,0
same,Serious adverse event Cardiac failure: %,16 mg/day,(1.1%)
